Measurements taken from ChEMBL document CHEMBL5365403, “Synthesis of proposed structure of ledebourin A” (Bioorg Med Chem Lett, 2023).
The source made the active and inactive calls. No cut-off for these calls is given here.

How the values were obtained:
HepG2 [1] = test: Cytotoxicity against human HepG2 cells assessed as reduction cell viability at 10 uM after 24 hrs by MTT assay; type: toxicity, cell-based; conditions: hepg2, 24 h
HepG2 [2] = test: Hepatoprotective activity against GA-induced human HepG2 cells assessed as cell viability at 10 uM pre-incubated for 2 hrs followed by GA addition and measured after 22 hrs by MTT assay (Rvb=37% ); type: functional; conditions: time 24 hrs, read-out: Activity
HepG2 [3] = test: Hepatoprotective activity against GA-induced human HepG2 cells assessed as reduction in Bax protein expression at 5 to 10 uM; type: functional, cell-based; conditions: dose 5-10 µM

Question: For `COc1ccc(C[C@H]2COc3cc4c(c(O)c3C2=O)C=CC(C)(C)O4)cc1`, which Activity (HepG2 [1]) is on record?
Answer: Non-Toxic

Question: What about the viability at 10 µM (HepG2 [2]) of the same molecule?
Answer: 47%

Question: What about the Activity (HepG2 [3]) of the same molecule?
Answer: Active

Question: What does the source list for `COc1ccc(C[C@H]2COc3c4c(cc(O)c3C2=O)OC(C)(C)C=C4)cc1`?
Answer: Activity (HepG2 [1]): Non-Toxic; viability at 10 µM (HepG2 [2]): 51%; Activity (HepG2 [3]): Active
